According to patent US9974869B2, “Chelated PSMA inhibitors” (Cancer Targeted Technology LLC, priority 2011, dated 2018):

How the values were obtained:
PSMA = PSMA (Homo sapiens, UniProt Q04609); test: PSMA inhibition (IC50, mode of inhibition); assay type: biochemical
[1] = Acid and base stability noted in preliminary labeling and deprotection studies; assay type: physicochemical; settings: serine-based scaffold; beta-elimination under base, P—N bond labile to acid
Excerpt: The instability of CTT54 and its protected precursors under basic conditions is due to beta-elimination on serine to yield a dehydroalanine derivative. The acid instability was centered on the P—N bond of CTT54, which precluded the use of acid modifiers in HPLC mobile phases. […] The homoserine analog was known initially as hCTT54 and later, more formally, as CTT1000. The 2(3-hydroxypropyl)glycine is known as TG97 and CTT2000. The base stability was expected as the beta-elimination problem associated with phosphorylated serine residue would be blocked. However, the acid stability was unexpected.

tumor = test: Uptake over time in the fraction associated with the tumor; settings: in vivo
Excerpt: Following administration of the chelated PSMA inhibitors herein, the imaging time may be altered to alter and/or optimize imaging characteristics.

PSMA, sequence (Q04609 whole entry): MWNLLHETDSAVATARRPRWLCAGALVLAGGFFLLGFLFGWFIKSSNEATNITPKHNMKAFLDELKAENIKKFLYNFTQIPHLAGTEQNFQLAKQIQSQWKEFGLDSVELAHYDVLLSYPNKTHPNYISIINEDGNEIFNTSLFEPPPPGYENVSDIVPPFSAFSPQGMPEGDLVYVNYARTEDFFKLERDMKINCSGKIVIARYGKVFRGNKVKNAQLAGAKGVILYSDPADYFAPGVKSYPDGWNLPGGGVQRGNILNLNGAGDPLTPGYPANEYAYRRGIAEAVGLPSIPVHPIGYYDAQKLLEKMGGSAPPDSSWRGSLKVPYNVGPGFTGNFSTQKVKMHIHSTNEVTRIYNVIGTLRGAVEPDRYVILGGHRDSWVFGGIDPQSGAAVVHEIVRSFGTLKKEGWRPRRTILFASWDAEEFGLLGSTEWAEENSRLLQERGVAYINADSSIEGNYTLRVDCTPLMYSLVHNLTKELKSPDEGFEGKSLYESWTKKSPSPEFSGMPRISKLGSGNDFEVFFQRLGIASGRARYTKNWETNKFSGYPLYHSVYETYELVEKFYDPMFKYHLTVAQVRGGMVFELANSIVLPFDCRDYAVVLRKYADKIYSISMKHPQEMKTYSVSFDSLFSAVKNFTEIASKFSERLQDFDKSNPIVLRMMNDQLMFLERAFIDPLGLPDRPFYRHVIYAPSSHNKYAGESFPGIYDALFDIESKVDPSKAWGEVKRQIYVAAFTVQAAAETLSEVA

IC50 (PSMA)	uptake in the fraction associated with the tumor over time (tumor)	SMILES	acid and base stability [1]
15 nM		N[C@@H](CCC(=O)N[C@@H](CCOP(=O)(O)N[C@@H](CCC(=O)O)C(=O)O)C(=O)O)C(=O)O [CTT1000]	
	continues to increase over time	N[C@@H](CCC(=O)N[C@@H](COP(=O)(O)N[C@@H](CCC(=O)O)C(=O)O)C(=O)O)C(=O)O [CTT-54, L-[…]- glutamyl-O-[{[(1S)-1,3-dicarboxy-propyl]amino} (hydroxy)phosphoryl]-L-serine]	acid and base stability issues were noted
